The first experiment has as its target human PAD4 (Homo sapiens (Human), UniProt Q9UM07). The experiment in a line: In Vitro PAD4 BAEE Biochemical Assay. Particulars: human PAD4, BAEE substrate; 5 nM PAD4, 2 mM calcium chloride, 3 mM BAEE; geometric mean of multiple experiments. The essentials:
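Recombinant human PAD4 (His-SUMO tag removed, E. coli-expressed), 5 nM, preincubated with compound and 2 mM CaCl2 30 min at 25 °C in MOPS pH 7.6 with DTT; 3 mM BAEE added for 2 h at 25 °C, EDTA stop. Released ammonia detected by o-phthalaldehyde/DTT fluorescence (ex 405, em 535 nm).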
Sequence of human PAD4 (Q9UM07 2-663): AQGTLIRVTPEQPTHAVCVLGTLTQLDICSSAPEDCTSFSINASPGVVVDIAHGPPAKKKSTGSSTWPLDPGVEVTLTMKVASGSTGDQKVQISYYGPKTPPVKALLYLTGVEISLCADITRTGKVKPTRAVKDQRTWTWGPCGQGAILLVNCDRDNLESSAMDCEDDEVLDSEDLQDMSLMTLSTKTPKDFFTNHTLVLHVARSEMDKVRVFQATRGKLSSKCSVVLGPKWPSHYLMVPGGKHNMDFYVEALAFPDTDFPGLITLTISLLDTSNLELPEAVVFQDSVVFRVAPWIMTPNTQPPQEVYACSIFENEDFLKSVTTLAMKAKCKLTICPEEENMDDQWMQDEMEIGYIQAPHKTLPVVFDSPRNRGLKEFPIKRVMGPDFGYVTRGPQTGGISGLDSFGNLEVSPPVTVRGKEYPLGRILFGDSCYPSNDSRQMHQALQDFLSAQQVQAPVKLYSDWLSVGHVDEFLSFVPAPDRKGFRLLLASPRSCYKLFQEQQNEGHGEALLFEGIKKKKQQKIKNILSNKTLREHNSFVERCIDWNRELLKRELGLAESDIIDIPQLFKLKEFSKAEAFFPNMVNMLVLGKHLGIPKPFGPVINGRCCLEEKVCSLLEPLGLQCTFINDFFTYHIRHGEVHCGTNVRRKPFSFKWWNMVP
As usually defined, the IC50 is the concentration that gives 50% inhibition. As to `CCCS(=O)(=O)N[C@H](C)c1ccc2cc(-c3nc4cc(C(=O)N5[C@H]6CC[C@@H]5[C@H](N)C6)cc(OC)c4n3C)n(CC3CC3)c2n1` [Example 240, N—((R)-1-(2-(5-((1R,2R,4S)-2-amino-7-azabicyclo[2.2.1]heptane-7-carbonyl)-7-methoxy-1-methyl-1H-benzo[d]imidazol-2-yl)-1-(cyclopropylmethyl)-1H-pyrrolo[2,3-b]pyridin-6-yl)ethyl)propane-1-sulfonamide], the IC50 was 65.6 nM.
For `COc1cc(C(=O)N2C[C@H](N)CCN2C)cc2nc(-c3cc4ccc([C@@H](C)NC(=O)[C@H](C)c5ccccc5)nc4n3CC3CC3)n(C)c12` [Example 164, (R)-N-((R)-1-(2-(5-((R)-5-amino-2-methylhexahydropyridazine-1-carbonyl)-7-methoxy-1-methyl-1H-benzo[d]imidazol-2-yl)-1-(cyclopropylmethyl)-1H-pyrrolo[2,3-b]pyridin-6-yl)ethyl)-2-phenylpropanamide], the IC50 stood at 148 nM.
Turning to `COc1cc(C(=O)N2C[C@H](N)[C@@H]3CC[C@H]2C3)cc2nc(-c3cc4ccc([C@@H](C)NC(=O)c5ccc(Cl)nc5)nc4n3CC3CC3)n(C)c12` [Example 225, N-((R)-1-(2-(5-((1S,4R,5R)-4-amino-2-azabicyclo[3.2.1]octane-2-carbonyl)-7-methoxy-1-methyl-1H-benzo[d]imidazol-2-yl)-1-(cyclopropylmethyl)-1H-pyrrolo[2,3-b]pyridin-6-yl)ethyl)-6-chloronicotinamide], the IC50 came to 48.1 nM.
Still for that read-out and setting: for `COc1cc(C(=O)N2CCCC(C)(N)C2)cc2nc(-c3cc4ccc(N(C(F)F)S(C)(=O)=O)nc4n3CC3CC3)n(C)c12` (centres unmarked) [Example 52, N-(2-(5-(3-amino-3-methylpiperidine-1-carbonyl)-7-methoxy-1-methyl-1H-benzo[d]imidazol-2-yl)-1-(cyclopropylmethyl)-1H-pyrrolo [2,3-b]pyridin-6-yl)-N-(difluoromethyl) methanesulfonamide] the value was 12700 nM; for `Cc1cc2c(cc1C(=O)N1C[C@H]3CC[C@@H]1[C@@H]3N)nc(-c1cc3ccc(N(C(F)F)S(C)(=O)=O)nc3n1CC1CC1)n2C1CC1` [Example 59, N-(2-(5-((1R,4R,7R)-7-amino-2-azabicyclo[2.2.1]heptane-2-carbonyl)-1-cyclopropyl-6-methyl-1H-benzo[d]imidazol-2-yl)-1-(cyclopropylmethyl)-1H-pyrrolo [2,3-b]pyridin-6-yl)-N-(difluoromethyl) methanesulfonamide], 9410 nM; for `COc1cc(C(=O)N2CCC[C@@H](N)C2)cc2nc(-c3cc4ccc(N(C)C(=O)N(C)C)nc4n3CC3CC3)n(C)c12` [Example 117, (R)-1-(2-(5-(3-aminopiperidine-1-carbonyl)-7-methoxy-1-methyl-1H-benzo[d]imidazol-2-yl)-1-(cyclopropylmethyl)-1H-pyrrolo[2,3-b]pyridin-6-yl)-1,3,3-trimethylurea], 1120 nM.
As for `COc1cc(C(=O)N2CCC[C@@H](N)C2)cc2nc(-c3cc4cc(F)c([C@@H](C)NC(=O)c5cnn(C)c5)cc4n3CC3CC3)n(C)c12` [Example 150, N-((R)-1-(2-(5-((R)-3-aminopiperidine-1-carbonyl)-7-methoxy-1-methyl-1H-benzo[d]imidazol-2-yl)-1-(cyclopropylmethyl)-5-fluoro-1H-indol-6-yl)ethyl)-1-methyl-1H-pyrazole-4-carboxamide], the IC50 came to 116 nM.
Regarding `COc1cc(C(=O)N2CCC[C@@H](N)C2)cc2nc(-c3cc4ccc(N(C)S(C)(=O)=O)nc4n3CC3CC3)n(C)c12` [Example 3, (R)-N-(2-(5-(3-aminopiperidine-1-carbonyl)-7-methoxy-1-methyl-1H-benzo[d]imidazol-2-yl)-1-(cyclopropylmethyl)-1H-pyrrolo [2,3-b]pyridin-6-yl)-N-methylmethanesulfonamide], the IC50 was found to be 122 nM.
In the case of `COc1cc(C(=O)N2C[C@H](N)CCN2C)cc2nc(-c3cc4ccc([C@@H](C)NC(=O)c5nc(C)cc(C(F)(F)F)n5)nc4n3CC3CC3)n(C)c12` [Example 183, N-((R)-1-(2-(5-((R)-5-amino-2-methylhexahydropyridazine-1-carbonyl)-7-methoxy-1-methyl-1H-benzo[d]imidazol-2-yl)-1-(cyclopropylmethyl)-1H-pyrrolo[2,3-b]pyridin-6-yl)ethyl)-4-methyl-6-(trifluoromethyl)pyrimidine-2-carboxamide], the IC50 amounted to 198 nM.
With `COc1cc(C(=O)N2CCC[C@@H](N)C2)cc2nc(-c3cc4ccc(N(C)S(=O)(=O)C5CC5)nc4n3CC3CC3)n(C)c12` [Example 8, (R)-N-(2-(5-(3-aminopiperidine-1-carbonyl)-7-methoxy-1-methyl-1H-benzo[d]imidazol-2-yl)-1-(cyclopropylmethyl)-1H-pyrrolo [2,3-b]pyridin-6-yl)-N-methylcyclopropanesulfonamide], the IC50 amounted to 190 nM.
For `COc1cc(C(=O)N2C[C@H](N)CC[C@@H]2C)cc2nc(-c3cc4ccc(-c5cccnc5N5CCOCC5)nc4n3CC3CC3)n(C)c12` [Example 261, ((2S,5R)-5-amino-2-methylpiperidin-1-yl)(2-(1-(cyclopropylmethyl)-6-(2-morpholinopyridin-3-yl)-1H-pyrrolo[2,3-b]pyridin-2-yl)-7-methoxy-1-methyl-1H-benzo[d]imidazol-5-yl)methanone], the IC50 worked out at 457 nM.
Take `COc1cc(C(=O)N2CCC[C@@H](N)C2)cc2nc(-c3cc4ccc([C@@H](C)NC(=O)C56CC(F)(C5)C6)nc4n3CC3CC3)n(C)c12` [Example 122, N-((R)-1-(2-(5-((R)-3-aminopiperidine-1-carbonyl)-7-methoxy-1-methyl-1H-benzo[d]imidazol-2-yl)-1-(cyclopropylmethyl)-1H-pyrrolo[2,3-b]pyridin-6-yl)ethyl)-3-fluorobicyclo[1.1.1]pentane-1-carboxamide]: the IC50 was 93.9 nM.
As to `COc1cc(C(=O)N2[C@H]3CC[C@@H]2[C@H](N)C3)cc2nc(-c3cc4ccc([C@@H](C)NC(=O)Cn5cccn5)nc4n3CC3CC3)n(C)c12` [Example 174, N-((R)-1-(2-(5-((1R,2R,4S)-2-amino-7-azabicyclo[2.2.1]heptane-7-carbonyl)-7-methoxy-1-methyl-1H-benzo[d]imidazol-2-yl)-1-(cyclopropylmethyl)-1H-pyrrolo[2,3-b]pyridin-6-yl)ethyl)-2-(1H-pyrazol-l-yl)acetamide], the IC50 came to 45.1 nM.
Turning to `COc1cc(C(=O)N2CC[C@@H](C)[C@@H](N)C2)cc2nc(-c3cc4ccc(N(C5CC5)S(C)(=O)=O)nc4n3CC3CC3)n(C)c12` [Example 34, N-(2-(5-((3R,4R)-3-amino-4-methylpiperidine-1-carbonyl)-7-methoxy-1-methyl-1H-benzo[d]imidazol-2-yl)-1-(cyclopropylmethyl)-1H-pyrrolo [2,3-b]pyridin-6-yl)-N-cyclopropylmethanesulfonamide], the IC50 was 300 nM.
With `COc1cc(C(=O)N2C[C@H](N)CC[C@@H]2C)cc2nc(-c3cc4ccc(N5C(=O)CCCC5C)nc4n3CC3CC3)n(C)c12` (stereo partly drawn) [Example 281, 1-(2-(5-((2S,5R)-5-amino-2-methylpiperidine-1-carbonyl)-7-methoxy-1-methyl-1H-benzo[d]imidazol-2-yl)-1-(cyclopropylmethyl)-1H-pyrrolo[2,3-b]pyridin-6-yl)-6-methylpiperidin-2-one], the IC50 came to 643 nM.
Turning to `COc1cc(C(=O)N2[C@H]3CC[C@@H]2[C@H](N)C3)cc2nc(-c3cc4ccc([C@@H](C)NC(=O)c5ccccc5)nc4n3CC3CC3)n(C)c12` [Example 123, N-((R)-1-(2-(5-((1R,2R,4S)-2-amino-7-azabicyclo[2.2.1]heptane-7-carbonyl)-7-methoxy-1-methyl-1H-benzo[d]imidazol-2-yl)-1-(cyclopropylmethyl)-1H-pyrrolo[2,3-b]pyridin-6-yl)ethyl)benzamide], the IC50 amounted to 29.2 nM.

Staying with this experiment, now noted: recombinant PAD4 5 nM, 2 mM calcium chloride, 3 mM BAEE substrate; geometric mean of multiple experiments.
As for `COc1cc(C(=O)N2C[C@H](N)[C@@H]3CC[C@H]2C3)cc2nc(-c3cc4ccc([C@@H](C)NC(=O)C56CC(F)(C5)C6)nc4n3CC3CC3)n(C3CC3)c12` [Example 317, N-((R)-1-(2-(5-((1S,4R,5R)-4-amino-2-azabicyclo[3.2.1]octane-2-carbonyl)-1-cyclopropyl-7-methoxy-1H-benzo[d]imidazol-2-yl)-1-(cyclopropylmethyl)-1H-pyrrolo[2,3-b]pyridin-6-yl)ethyl)-3-fluorobicyclo[1.1.1]pentane-1-carboxamide], the IC50 worked out at 124 nM.
Still for that read-out and setting: the result for `COc1cc(C(=O)N2C[C@H](N)[C@@H]3CC[C@H]2C3)cc2nc(-c3cc4ccc([C@@H](C)NC(=O)C(C)(C)C)nc4n3CC(C)(C)O)n(C)c12` [Example 330, N-((R)-1-(2-(5-((1S,4R,5R)-4-amino-2-azabicyclo[3.2.1]octane-2-carbonyl)-7-methoxy-1-methyl-1H-benzo[d]imidazol-2-yl)-1-(2-hydroxy-2-methylpropyl)-1H-pyrrolo[2,3-b]pyridin-6-yl)ethyl)pivalamide] reads 253 nM; that for `COc1cc(C(=O)N2C[C@H](N)[C@@H]3CC[C@H]2C3)cc2nc(-c3cc4ccc([C@@H](C)NC(=O)[C@@]5(C)CC5(F)F)nc4n3CC3CC3)n(C)c12` [Example 332, (R)-N-((R)-1-(2-(5-((1S,4R,5R)-4-amino-2-azabicyclo[3.2.1]octane-2-carbonyl)-7-methoxy-1-methyl-1H-benzo[d]imidazol-2-yl)-1-(cyclopropylmethyl)-1H-pyrrolo[2,3-b]pyridin-6-yl)ethyl)-2,2-difluoro-1-methylcyclopropane-1-carboxamide], 84.2 nM; that for `COc1cc(C(=O)N2C[C@H](N)[C@@H]3CC[C@H]2C3)cc2nc(-c3cc4ccc([C@@H](C)NC(=O)c5ccc(C(F)F)nc5)nc4n3CC3CC3)n(C3CC3)c12` [Example 309, N-((R)-1-(2-(5-((1S,4R,5R)-4-amino-2-azabicyclo[3.2.1]octane-2-carbonyl)-1-cyclopropyl-7-methoxy-1H-benzo[d]imidazol-2-yl)-1-(cyclopropylmethyl)-1H-pyrrolo[2,3-b]pyridin-6-yl)ethyl)-6-(difluoromethyl)nicotinamide], 111 nM.
